From patent US7964531B2, “3-phenoxy-4-pyridazinol derivatives and herbicidal composition containing the same” (Mitsui Chemicals Agro, Inc., priority 2001, dated 2011) come the findings set out here.

Data set [1] relates to Cyperus serotinus. Put plainly: Test Example 4: herbicidal effects of mixed wettable powder, paddy-field pot test. Format: in vivo. The note with it: no second compound, after 25 days. The method, then: (§1) Paddy filed soil was filled in 1/5000 are Wagner pot, seeds of barnyardgrass (Echinochloa oryzicola Vasing.), Scirpus joncoides and annual broad-leaved weeds (Lindernia spp. and Rotala indica) which are awaken from dormancy were mixed at the surface layer of 1 cm. Also, tubers of Cyperus serotinus, Sagittaria pygmaea and Eleocharis kuroguwai which are awaken from dormancy were planted, and further seedlings of paddy-field rice at 2.2-leaf stage were transplanted and they were grown under the flooded condition in a greenhouse. After 3 days from the transplanting, a predetermined chemical dosage of the wettable powder prepared in accordance with Preparation example 5 was diluted with water, and applied to the pot. After 25 days, herbicidal effects and crop injury against transplanted paddy-field rice were judged according to the following judgment standard, and the results were shown in Table 5. Incidentally, “-” in the table means a composition containing no effective ingredient.
(§2) Judgment Standard • 0: Growth-inhibition rate; 0 to 15% • 1: Growth inhibition rate; 16 to 35% • 2: Growth inhibition rate; 36 to 55% • 3: Growth inhibition rate; 56 to 75% • 4: Growth inhibition rate; […] • 5: Growth inhibition rate; 96 to 100%.

The next data set relates to Eleocharis kuroguwai. The data set is described as above. Format: in vivo. The note with it: no second compound, after 25 days. The method, then: as §1, §2
For another data set, the system named is Sagittaria pygmaea. The description is as above. Particulars: no second compound, after 25 days. Format: in vivo. The method, then: as §1, §2
Data set [2] concerns Scirpus joncoides. The description is as above. Format: in vivo. The note with it: no second compound, after 25 days. Here is the method:
as §1, §2

In data set [3] the test system is annual broad-leaved weeds (Lindernia spp. and Rotala indica). The data set is described as above. The data set is classed as in vivo. Particulars: no second compound, after 25 days. Here is the method: as §1, §2
The test system of data set [4] is barnyardgrass (Echinochloa oryzicola Vasing.). The data set is described as above. Format: in vivo. The note with it: no second compound, after 25 days. Here is the method:
as §1, §2

For data set [5], the system named is transplanted paddy-field rice. Put plainly: Test Example 4: crop injury against transplanted paddy-field rice. Format: in vivo. The note with it: no second compound, after 25 days. The method, then: as §1, §2
Data set [6] has as its system Cyperus serotinus. Put plainly: Test Example 1: herbicidal effects, paddy-field pot test. The data set is classed as in vivo. Particulars: wettable powder applied 3 days after transplanting, judged after 25 days. The method in brief: (§3)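 Herbicidal effect and crop injury were rated 0 (0-10% inhibition) to 5 (91-100%) 25 days after treatment. Water-diluted wettable powder was applied to flooded greenhouse pots 3 days after transplanting 2.2-leaf rice. The pots held seeded weeds and sprouted Cyperus serotinus tubers.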

The test system of data set [7] is Scirpus joncoides. The data set is described as above. The note with it: wettable powder applied 3 days after transplanting, judged after 25 days. The data set is classed as in vivo. The method in brief: as §3
Data set [8] relates to annual broad-leaved weeds (Lindernia spp., Rotala indica). The data set is described as above. Particulars: wettable powder applied 3 days after transplanting, judged after 25 days. Format: in vivo. The method in brief: as §3
Data set [9] relates to barnyardgrass (Echinochloa oryzicola Vasing.). The data set is described as above. The note with it: wettable powder applied 3 days after transplanting, judged after 25 days. The data set is classed as in vivo. The method in brief:
as §3

Data set [10] has as its system transplanted paddy-field rice. Put plainly: Test Example 1: crop injury against transplanted paddy-field rice. Format: in vivo. Particulars: wettable powder applied 3 days after transplanting, judged after 25 days. The method in brief:
as §3

`N#CC1CC1c1ccccc1Oc1nnc(Cl)cc1O` (stereo not drawn) [Compound No. 226, 2-{2-[(6-Chloro-4-hydroxy-3-pyridazinyl)oxy]phenyl}-cyclopropanecarbonitrile] displayed a melting point of 203 to 207 °C. In addition, in the data set on Cyperus serotinus [1] (derivative 5 g/a), the “Herbicidal effects Cyperus serotinus” value is 5 (Growth inhibition rate; 96 to 100%). The “Herbicidal effects Cyperus serotinus” value with Cyperus serotinus [1] (derivative 10 g/a) is 5 (Growth inhibition rate; 96 to 100%). The “Herbicidal effects Eleocharis kuroguwai” value in the data set on Eleocharis kuroguwai (derivative 5 g/a) was 1 (Growth inhibition rate; 16 to 35%). Also, the “Herbicidal effects Eleocharis kuroguwai” value in the data set on Eleocharis kuroguwai (derivative 10 g/a) is on record as 2 (Growth inhibition rate; 36 to 55%). The “Herbicidal effects Sagittaria pygmaea” value with Sagittaria pygmaea (derivative 5 g/a) is on record as 5 (Growth inhibition rate; 96 to 100%). Further, the “Herbicidal effects Sagittaria pygmaea” value in the data set on Sagittaria pygmaea (derivative 10 g/a) is 5 (Growth inhibition rate; 96 to 100%). In addition, the “Herbicidal effects Scirpus joncoides” value in the data set with Scirpus joncoides [2] (derivative 5 g/a) was 4 (Growth inhibition rate; 7.6 to 95%). Moreover, the “Herbicidal effects Scirpus joncoides” value in the data set with Scirpus joncoides [2] (derivative 10 g/a) is 5 (Growth inhibition rate; 96 to 100%). Further, the “Herbicidal effects Broad leaf” value in [3] (derivative 5 g/a) was 5 (Growth inhibition rate; 96 to 100%). For the same molecule, in data set [3] (derivative 10 g/a), the “Herbicidal effects Broad leaf” value was 5 (Growth inhibition rate; 96 to 100%). Besides, in [4] (derivative 5 g/a), the “Herbicidal effects Barnyard grass” value is on record as 3 (Growth inhibition rate; 56 to 75%). Also, the “Herbicidal effects Barnyard grass” value in data set [4] (derivative 10 g/a) was 3 (Growth inhibition rate; 56 to 75%). For the same molecule, the “Crop injury against transplanted rice” value in data set [5] (derivative 5 g/a) was 0 (Growth-inhibition rate; 0 to 15%). For the same molecule, the “Crop injury against transplanted rice” value in data set [5] (derivative 10 g/a) is on record as 0 (Growth-inhibition rate; 0 to 15%).
Turning to `Cc1ccccc1Oc1nnc(Cl)cc1O` [Example 1], the “Herbicidal effects Cyperus serotinus” value with Cyperus serotinus [6] (chemical dosage 12.5 g/a) is on record as 5 (Growth inhibition rate; 91 to 100%); in the data set with Cyperus serotinus [6] (chemical dosage 25 g/a), 5 (Growth inhibition rate; 91 to 100%); in the data set with Cyperus serotinus [1] (derivative 5 g/a), 4 (Growth inhibition rate; 7.6 to 95%); in the data set on Cyperus serotinus [1] (derivative 10 g/a), 5 (Growth inhibition rate; 96 to 100%). Further, the “Herbicidal effects Scirpus joncoides” value with Scirpus joncoides [7] (chemical dosage 12.5 g/a) is on record as 5 (Growth inhibition rate; 91 to 100%); with Scirpus joncoides [7] (chemical dosage 25 g/a) it was 5 (Growth inhibition rate; 91 to 100%); in the data set on Scirpus joncoides [2] (derivative 5 g/a), 2 (Growth inhibition rate; 36 to 55%); in the data set on Scirpus joncoides [2] (derivative 10 g/a) it was 4 (Growth inhibition rate; 7.6 to 95%). Besides, the “Herbicidal effects Broad leaf” value in [8] (chemical dosage 12.5 g/a) is given as 5 (Growth inhibition rate; 91 to 100%); in [8] (chemical dosage 25 g/a) it was 5 (Growth inhibition rate; 91 to 100%); in [3] (derivative 5 g/a), 3 (Growth inhibition rate; 56 to 75%); in data set [3] (derivative 10 g/a) it was 4 (Growth inhibition rate; 7.6 to 95%). For the same molecule, the “Herbicidal effects Barnyard grass” value in [9] (chemical dosage 12.5 g/a) is 4 (Growth inhibition rate; 71 to 90%); in [9] (chemical dosage 25 g/a) it was 5 (Growth inhibition rate; 91 to 100%); in data set [4] (derivative 5 g/a) it was 2 (Growth inhibition rate; 36 to 55%); in data set [4] (derivative 10 g/a), 4 (Growth inhibition rate; 7.6 to 95%). The “Crop injury against transplanted rice” value in data set [10] (chemical dosage 12.5 g/a) is listed as 0 (Growth inhibition rate; 0 to 10%); in data set [10] (chemical dosage 25 g/a), 0 (Growth inhibition rate; 0 to 10%); in data set [5] (derivative 5 g/a) it was 0 (Growth-inhibition rate; 0 to 15%); in data set [5] (derivative 10 g/a), 0 (Growth-inhibition rate; 0 to 15%). Besides, the “Herbicidal effects Eleocharis kuroguwai” value in the data set on Eleocharis kuroguwai (derivative 5 g/a) and in the data set with Eleocharis kuroguwai (derivative 10 g/a) was 0 (Growth-inhibition rate; 0 to 15%) throughout. The “Herbicidal effects Sagittaria pygmaea” value in the data set on Sagittaria pygmaea (derivative 5 g/a) and in the data set on Sagittaria pygmaea (derivative 10 g/a) was 4 (Growth inhibition rate; 7.6 to 95%) each time.
Take `Oc1cc(Cl)nnc1Oc1ccccc1C1CC1` [Example 6]: the “Herbicidal effects Cyperus serotinus” value in the data set on Cyperus serotinus [6] (chemical dosage 10 g/a) is 5 (Growth inhibition rate; 91 to 100%); with Cyperus serotinus [6] (chemical dosage 20 g/a), 5 (Growth inhibition rate; 91 to 100%); in the data set with Cyperus serotinus [1] (derivative 5 g/a) it was 5 (Growth inhibition rate; 96 to 100%); with Cyperus serotinus [1] (derivative 10 g/a), 5 (Growth inhibition rate; 96 to 100%). Further, the “Herbicidal effects Scirpus joncoides” value with Scirpus joncoides [7] (chemical dosage 10 g/a) is recorded as 5 (Growth inhibition rate; 91 to 100%); in the data set with Scirpus joncoides [7] (chemical dosage 20 g/a) it was 5 (Growth inhibition rate; 91 to 100%); with Scirpus joncoides [2] (derivative 5 g/a) it was 5 (Growth inhibition rate; 96 to 100%); in the data set on Scirpus joncoides [2] (derivative 10 g/a), 5 (Growth inhibition rate; 96 to 100%). Moreover, the “Herbicidal effects Broad leaf” value was 5 (Growth inhibition rate; 91 to 100%) in data set [8] (chemical dosage 10 g/a), 5 (Growth inhibition rate; 91 to 100%) in [8] (chemical dosage 20 g/a), 5 (Growth inhibition rate; 96 to 100%) in data set [3] (derivative 5 g/a) and 5 (Growth inhibition rate; 96 to 100%) in [3] (derivative 10 g/a). The “Herbicidal effects Barnyard grass” value in data set [9] (chemical dosage 10 g/a) is listed as 2 (Growth inhibition rate; 31 to 50%); in data set [9] (chemical dosage 20 g/a), 3 (Growth inhibition rate; 51 to 70%); in data set [4] (derivative 5 g/a) it was 1 (Growth inhibition rate; 16 to 35%); in data set [4] (derivative 10 g/a), 2 (Growth inhibition rate; 36 to 55%). The “Crop injury against transplanted rice” value in [10] (chemical dosage 10 g/a) was 0 (Growth inhibition rate; 0 to 10%); in data set [10] (chemical dosage 20 g/a) it was 0 (Growth inhibition rate; 0 to 10%); in [5] (derivative 5 g/a) it was 0 (Growth-inhibition rate; 0 to 15%); in data set [5] (derivative 10 g/a) it was 0 (Growth-inhibition rate; 0 to 15%). Besides, the entries for the “Herbicidal effects Eleocharis kuroguwai” value with Eleocharis kuroguwai (derivative 5 g/a) and in the data set with Eleocharis kuroguwai (derivative 10 g/a) were 2 (Growth inhibition rate; 36 to 55%) and 3 (Growth inhibition rate; 56 to 75%), respectively. Besides, the “Herbicidal effects Sagittaria pygmaea” value in the data set on Sagittaria pygmaea (derivative 5 g/a) and in the data set on Sagittaria pygmaea (derivative 10 g/a) was 5 (Growth inhibition rate; 96 to 100%) in each case.
As for `COc1ccc(C)cc1Oc1nnc(Cl)cc1O` [Example 16], the “Herbicidal effects Cyperus serotinus” value in the data set on Cyperus serotinus [6] (chemical dosage 10 g/a) is given as 5 (Growth inhibition rate; 91 to 100%); with Cyperus serotinus [6] (chemical dosage 20 g/a) it was 5 (Growth inhibition rate; 91 to 100%); in the data set with Cyperus serotinus [1] (derivative 5 g/a), 4 (Growth inhibition rate; 7.6 to 95%); in the data set with Cyperus serotinus [1] (derivative 10 g/a), 5 (Growth inhibition rate; 96 to 100%). Also, the “Herbicidal effects Scirpus joncoides” value in the data set on Scirpus joncoides [7] (chemical dosage 10 g/a) is 5 (Growth inhibition rate; 91 to 100%); in the data set with Scirpus joncoides [7] (chemical dosage 20 g/a), 5 (Growth inhibition rate; 91 to 100%); in the data set with Scirpus joncoides [2] (derivative 5 g/a), 3 (Growth inhibition rate; 56 to 75%); in the data set with Scirpus joncoides [2] (derivative 10 g/a), 5 (Growth inhibition rate; 96 to 100%). Further, the “Herbicidal effects Broad leaf” value in data set [8] (chemical dosage 10 g/a) is on record as 5 (Growth inhibition rate; 91 to 100%); in [8] (chemical dosage 20 g/a) it was 5 (Growth inhibition rate; 91 to 100%); in data set [3] (derivative 5 g/a), 5 (Growth inhibition rate; 96 to 100%); in [3] (derivative 10 g/a) it was 5 (Growth inhibition rate; 96 to 100%). Also, the “Herbicidal effects Barnyard grass” value in data set [9] (chemical dosage 10 g/a) is reported as 0 (Growth inhibition rate; 0 to 10%); in data set [9] (chemical dosage 20 g/a) it was 1 (Growth inhibition rate; 11 to 30%); in [4] (derivative 5 g/a) it was 0 (Growth-inhibition rate; 0 to 15%); in data set [4] (derivative 10 g/a), 0 (Growth-inhibition rate; 0 to 15%). Also, the “Crop injury against transplanted rice” value is 0 (Growth inhibition rate; 0 to 10%) in data set [10] (chemical dosage 10 g/a), 0 (Growth inhibition rate; 0 to 10%) in data set [10] (chemical dosage 20 g/a), 0 (Growth-inhibition rate; 0 to 15%) in [5] (derivative 5 g/a) and 0 (Growth-inhibition rate; 0 to 15%) in data set [5] (derivative 10 g/a). Moreover, the “Herbicidal effects Eleocharis kuroguwai” value in the data set on Eleocharis kuroguwai (derivative 5 g/a) was 0 (Growth-inhibition rate; 0 to 15%); with Eleocharis kuroguwai (derivative 10 g/a), 1 (Growth inhibition rate; 16 to 35%). Moreover, the “Herbicidal effects Sagittaria pygmaea” value in the data set on Sagittaria pygmaea (derivative 5 g/a) was 3 (Growth inhibition rate; 56 to 75%); in the data set with Sagittaria pygmaea (derivative 10 g/a), 4 (Growth inhibition rate; 7.6 to 95%).
